Measured values: US8343475B2, “Small cationic antimicrobial peptides” (priority 2006, dated 2013)
≈ marks a conversion by molar mass, not a printed value. Residues, ends and D or L forms follow the SMILES beside them.

Key:
[1] = test system: Enterococcus faecalis ATCC29212; assay type: cell-based; conditions: ATCC29212
How it was run: (§1)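 MIC by modified broth microdilution in Mueller Hinton medium. Peptides were diluted in 0.01% acetic acid with 0.2% BSA and added at 10× to inoculum of 2-7×10^5 CFU/ml, then incubated overnight at 37 °C. MIC is the lowest concentration with no visible growth.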

[2] = test system: clinical isolate of Staphylococcus epidermidis; assay type: cell-based; conditions: clinical isolate of
How it was run: as §1

[3] = test system: lab isolate of Candida albicans; assay type: cell-based; conditions: lab isolate of
How it was run: as §1

[4] = test system: Staphylococcus aureus ATCC25923; assay type: cell-based; conditions: ATCC25923
How it was run: as §1

[5] = test system: Escherichia coli UB1005; assay type: cell-based; conditions: UB1005
How it was run: as §1

[6] = test system: wild-type Salmonella enterica ssp. typhimurium; assay type: cell-based
How it was run: as §1

[7] = test system: MCP-1 release by human PBMC; assay: Chemokine induction in PBMC (capture ELISA); assay type: cell-based; conditions: background (204) subtracted
How it was run: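 Heparinized blood from healthy volunteers; Ficoll-isolated human PBMC (7.5×10^5) treated with peptides at 20 or 100 μg/ml for 24 hours at 37° C, 5% CO2. Cell-free supernatants assayed for MCP-1 by capture ELISA.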

[8] = test system: ESBL E. cloacae; assay type: cell-based, Enterobacter cloacae
Protocol: (§2) Minimal inhibitory concentration (MIC) determination. The MIC of the peptides were measured using a modified broth microdilution method in Mueller Hinton (MH) medium (Wu M, Hancock R E W. 1999. Interaction of the cyclic antimicrobial cationic peptide bactenecin with the outer and cytoplasmic membrane. J Biol Chem 274, 29-35). Briefly, the peptides were dissolved and stored in glass vials. The assay was performed in sterile 96-well polypropylene microtitre plates were used. Serial dilutions of the peptides to be assayed were performed in 0.01% acetic acid (Fisher) containing 0.2% bovine serum albumin (Boehringer Mannheim GmbH) at 10× the desired final concentration. Ten microlitres of the 10× peptides were added to each well of a 96-well polypropylene plate containing 90 μl of MH media per well. Bacteria were added to the plate from an overnight culture at 2-7×10^5 colony forming units/ml and incubated over night at 37° C. The MIC was taken as the concentration at which no growth was observed.
(§3) All peptides derived from the 1st, 2nd, and 3rd quartiles were further evaluated for their antibacterial activities against several highly antibitoic resistant pathogens (Table 3). These included clinical isolates of MRSA, ESBL E. cloacae, and multidrug resistant Pseudomonas strains including Brazilian clinical isolates of P. aeruginosa that are resistant to meropenem, ceftazidime, piperacillin/tazobactam, ciprofloxacin, cefepime and polymyxin B, and the Liverpool Epidemic Strains. […] Such results characterize the developed peptides as excellent antibiotic candidates, providing new means for treating most dangerous and severe forms of human infections.

[9] = test system: Liverpool Epidemic Strains; assay type: cell-based, Pseudomonas aeruginosa
Protocol: as §2, §3

[10] = test system: clinical isolates of MRSA; assay type: cell-based, Staphylococcus aureus
Protocol: as §2, §3

[11] = test system: CXCL1 (Gro-α) release by human PBMC; assay: Chemokine induction in PBMC (capture ELISA); assay type: cell-based; conditions: background (196) subtracted
How it was run: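 Human PBMC from healthy donors' heparinised blood (Ficoll), 7.5×10^5 cells treated with 20 or 100 μg/ml peptide for 24 h at 37° C, 5% CO2. Cell-free supernatants assayed for CXCL1 by capture ELISA.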

[12] = test system: MCP-3 release by human PBMC; assay: Chemokine induction in PBMC (capture ELISA); assay type: cell-based; conditions: background (6) subtracted
How it was run: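 Human PBMC from healthy donors (Ficoll-isolated), 7.5×10^5 cells at 0.75–1×10^6 cells/ml, treated with peptides at 20 or 100 μg/ml for 24 h at 37° C, 5% CO2. MCP-3 in cell-free supernatants measured by capture ELISA.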

[13] = test system: Pseudomonas aeruginosa PAO1 strain H103; assay type: cell-based
How it was run: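 Modified broth microdilution MIC in Mueller Hinton medium, peptides diluted in 0.01% acetic acid/0.2% BSA, polypropylene plates. Inoculum 2-7×10^5 CFU/ml, overnight at 37 °C; MIC is the lowest concentration with no visible growth.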

[14] = test system: ESBL Klebsiella pneumonia clinical strain 63575; assay type: cell-based
Protocol: as §2
(§4) The selected peptides were synthesized and assayed against several major antibiotic-resistant pathogens. Initially, the peptides were screened against the laboratory strain of P. aeruginosa PAO1 to compare the results with the training data. […] The antibacterial activity in the form of minimal inhibitory concentration (MIC) of the other studied peptides was assessed in greater depth (Table 9) against many highly antibiotic resistanct pathogens.

[15] = test system: multidrug resistant Pseudomonas maltophilia ATCC13637; assay type: cell-based
Protocol: as §2, §4

[16] = test system: ESBL E. coli clinical strain 64771; assay type: cell-based; conditions: ESBL clinical strain 64771
Protocol: as §2, §4

| SMILES | MIC [1] | MIC [4] | MIC [8] | MIC [9] | MIC [10] | MIC [14] | MIC [15] | MIC [16] | MIC against P. aeruginosa PAO1 ([13]; PAO1) | Chemokine induction MCP-1 ([7]; 20 μg/ml peptide) | Chemokine induction MCP-1 ([7]; 100 μg/ml peptide) | Chemokine induction Gro-α ([11]; 20 μg/ml peptide) | Chemokine induction Gro-α ([11]; 100 μg/ml peptide) | Chemokine induction MCP-3 ([12]; 20 μg/ml peptide) | Chemokine induction MCP-3 ([12]; 100 μg/ml peptide) | other results |
| --- | --- | --- | --- | --- | --- | --- | --- | --- | --- | --- | --- | --- | --- | --- | --- | --- |
| CC[C@H](C)[C@H](NC(=O)[C@H](CCCNC(=N)N)NC(=O)[C@H](C)NC(=O)[C@H](CC(C)C)NC(=O)[C@@H](N)CCCNC(=N)N)C(=O)N[C@H](C(=O)N[C@H](C(=O)N[C@H](C(=O)N[C@@H](CCCNC(=N)N)C(=O)N[C@H](C(=O)N[C@@H](C)C(=O)N[C@@H](CCCNC(=N)N)C(N)=O)C(C)C)[C@@H](C)CC)C(C)C)C(C)C [Bac2A, RLARIVVIRVAR-NH2, reference compound] (H-RLARIVVIRVAR-NH2; N-terminus assumed) | 12 µM (≈ 17 µg/mL) | 24 µM (≈ 34.1 µg/mL) | 24 µM (≈ 34.1 µg/mL) | 12 µM (≈ 17 µg/mL) | 24 µM (≈ 34.1 µg/mL) | 192 µM (≈ 273 µg/mL) | 3 µM (≈ 4.26 µg/mL) | 24 µM (≈ 34.1 µg/mL) | – | 316 pg/mL | 442 pg/mL | 9 pg/mL | 8 pg/mL | 2 pg/mL | 2 pg/mL | MIC E. faecalis [1]: 17 µg/mL (≈ 12 µM); MIC S. epi. [2]: 4 µg/mL (≈ 2.82 µM); MIC C. albicans [3]: 9 µg/mL (≈ 6.33 µM); MIC S. aureus [4]: 17 µg/mL (≈ 12 µM); MIC E. coli [5]: 17 µg/mL (≈ 12 µM); MIC S. typhi [6]: 34 µg/mL (≈ 23.9 µM); MIC P. aerug ([13]; PAO1): 50 µg/mL (≈ 35.2 µM) |
| CC[C@H](C)[C@H](N)C(=O)N[C@@H](Cc1c[nH]c2ccccc12)C(=O)N[C@@H](Cc1c[nH]c2ccccc12)C(=O)N[C@@H](CCCCN)C(=O)N[C@@H](Cc1c[nH]c2ccccc12)C(=O)N[C@@H](CCCNC(=N)N)C(=O)N[C@@H](CCCNC(=N)N)C(=O)N[C@@H](Cc1c[nH]c2ccccc12)C(=O)N[C@H](C(N)=O)C(C)C [HHC77, IWWKWRRWV] (H-IWWKWRRWV-NH2; N-terminus assumed) | 24 µM (≈ 34 µg/mL) | 3 µM (≈ 4.24 µg/mL) | 6 µM (≈ 8.49 µg/mL) | 6 µM (≈ 8.49 µg/mL) | 3 µM (≈ 4.24 µg/mL) | 12 µM (≈ 17 µg/mL) | 1.5 µM (≈ 2.12 µg/mL) | 6 µM (≈ 8.49 µg/mL) | 4 to 12 µM | 98 pg/mL | 4548 pg/mL | -22 pg/mL | 50 pg/mL | 0 pg/mL | 23 pg/mL | – |
| CC(C)[C@H](NC(=O)[C@H](CCCNC(=N)N)NC(=O)[C@H](CCCCN)NC(=O)[C@@H](NC(=O)[C@H](Cc1ccccc1)NC(=O)[C@H](CCCCN)NC(=O)[C@H](Cc1c[nH]c2ccccc12)NC(=O)[C@@H](NC(=O)[C@H](C)N)C(C)C)C(C)C)C(N)=O [HHC123, AVWKFVKRV] (H-AVWKFVKRV-NH2; N-terminus assumed) | >240 µM | 240 µM (≈ 272 µg/mL) | >240 µM | 120 µM (≈ 136 µg/mL) | 240 µM (≈ 272 µg/mL) | >240 µM | 60 µM (≈ 67.9 µg/mL) | 120 µM (≈ 136 µg/mL) | – | 46 pg/mL | 204 pg/mL | -25 pg/mL | 17 pg/mL | 0 pg/mL | 3 pg/mL | antimicrobial activity against P. aeruginosa PAO1 (in words) ([13]; laboratory strain P. aeruginosa PAO1): did not return any generally active substances |

The next lines start with results.

| MIC [1] | MIC [4] | MIC [8] | MIC [9] | MIC [10] | MIC [14] | MIC [15] | MIC [16] | MIC against P. aeruginosa PAO1 ([13]; PAO1) | SMILES | Chemokine induction MCP-1 ([7]; 20 μg/ml peptide) | Chemokine induction MCP-1 ([7]; 100 μg/ml peptide) | Chemokine induction Gro-α ([11]; 20 μg/ml peptide) | Chemokine induction Gro-α ([11]; 100 μg/ml peptide) | Chemokine induction MCP-3 ([12]; 20 μg/ml peptide) | Chemokine induction MCP-3 ([12]; 100 μg/ml peptide) | other results |
| --- | --- | --- | --- | --- | --- | --- | --- | --- | --- | --- | --- | --- | --- | --- | --- | --- |
| 25 µM (≈ 33.3 µg/mL) | 13 µM (≈ 17.3 µg/mL) | 25 µM (≈ 33.3 µg/mL) | 3 µM (≈ 4 µg/mL) | 13 µM (≈ 17.3 µg/mL) | 51 µM (≈ 68 µg/mL) | 1.6 µM (≈ 2.13 µg/mL) | 13 µM (≈ 17.3 µg/mL) | 4 to 12 µM | CC[C@H](C)[C@H](NC(=O)[C@H](Cc1c[nH]c2ccccc12)NC(=O)[C@@H](NC(=O)[C@H](Cc1c[nH]c2ccccc12)NC(=O)[C@H](CCCNC(=N)N)NC(=O)[C@H](CCCCN)NC(=O)[C@@H](N)CCCCN)C(C)C)C(=O)N[C@@H](CCCNC(=N)N)C(=O)N[C@@H](Cc1ccc(O)cc1)C(N)=O [HHC69, KKRWVWIRY] (H-KKRWVWIRY-NH2; N-terminus assumed) | 440 pg/mL | 245 pg/mL | 17 pg/mL | -3 pg/mL | 1 pg/mL | 0 pg/mL | – |
| 6 µM (≈ 8.34 µg/mL) | 31 µM (≈ 43.1 µg/mL) | 3 µM (≈ 4.17 µg/mL) | 1.5 µM (≈ 2.08 µg/mL) | 3 µM (≈ 4.17 µg/mL) | 3.1 µM (≈ 4.31 µg/mL) | 1.5 µM (≈ 2.08 µg/mL) | 1.5 µM (≈ 2.08 µg/mL) | 4 to 12 µM | CC[C@H](C)[C@H](NC(=O)[C@H](Cc1c[nH]c2ccccc12)NC(=O)[C@H](CCCCN)NC(=O)[C@@H](N)CCCNC(=N)N)C(=O)N[C@@H](Cc1c[nH]c2ccccc12)C(=O)N[C@@H](CCCNC(=N)N)C(=O)N[C@@H](Cc1c[nH]c2ccccc12)C(=O)N[C@@H](Cc1ccccc1)C(=O)N[C@@H](CC(C)C)C(N)=O [HHC75, RKWIWRWFL] (H-RKWIWRWFL-NH2; N-terminus assumed) | 1313 pg/mL | 6140 pg/mL | 554 pg/mL | 1683 pg/mL | 34 pg/mL | 322 pg/mL | – |
| 12 µM (≈ 16.7 µg/mL) | 6 µM (≈ 8.36 µg/mL) | 12 µM (≈ 16.7 µg/mL) | 3 µM (≈ 4.18 µg/mL) | 6 µM (≈ 8.36 µg/mL) | 49 µM (≈ 68.3 µg/mL) | 0.8 µM (≈ 1.11 µg/mL) | 12 µM (≈ 16.7 µg/mL) | 4 to 12 µM | CC[C@H](C)[C@H](NC(=O)[C@H](Cc1ccccc1)NC(=O)[C@H](CCCCN)NC(=O)[C@H](Cc1ccccc1)NC(=O)[C@H](CCCNC(=N)N)NC(=O)[C@@H](N)CCCNC(=N)N)C(=O)N[C@@H](CCCNC(=N)N)C(=O)N[C@@H](Cc1c[nH]c2ccccc12)C(=O)N[C@@H](Cc1c[nH]c2ccccc12)C(N)=O [HHC100, RRFKFIRWW] (H-RRFKFIRWW-NH2; N-terminus assumed) | 179 pg/mL | 197 pg/mL | -18 pg/mL | -43 pg/mL | -1 pg/mL | 0 pg/mL | – |
